Results: patent US11505575B2, “Cyclic polypeptides for PCSK9 inhibition” (Merck Sharp & Dohme LLC, priority 2018, dated 2022)
*1 amine or outer side, *2 acyl side, *3 side chain or, on linkers, in order; H or OH if unused. Where a SMILES comes first, the peptide text is derived from it. Bridges are numbered along the chain shown (N, C = ends). [ ]: non-standard residue; d: D form. Phe(3-CF3) = N[C@@H](Cc1cccc(C(F)(F)F)c1)C(=O)O; Trp(7-aza) = N[C@@H](Cc1c[nH]c2ncccc12)C(=O)O; pT = C[C@@H](OP(=O)(O)O)[C@H](N)C(=O)O; mXylylene = c1cc(C[*:1])cc(C[*:2])c1; pS = N[C@@H](COP(=O)(O)O)C(=O)O; aThr = C[C@H](O)[C@H](N)C(=O)O; Tle = CC(C)(C)[C@H](N)C(=O)O; αMeV = CC(C)[C@](C)(N)C(=O)O; Aib = CC(C)(N)C(=O)O; Mpa = O=C(O)CCS

Columns and labels:
Assay type in all cases: binding
[1] = biological target: human PCSK9 / human LDLR EGFa domain interaction (Homo sapiens, UniProt Q8NBP7); experiment: TR-FRET assay of inhibition of the PCSK9-LDLR protein-protein interaction; conditions: 20 nM biotinylated human PCSK9 + 20 nM his-tagged human LDLR EGFa domain, 2 hours room temperature
human PCSK9 / human LDLR EGFa domain interaction, sequence (Q8NBP7 153-692): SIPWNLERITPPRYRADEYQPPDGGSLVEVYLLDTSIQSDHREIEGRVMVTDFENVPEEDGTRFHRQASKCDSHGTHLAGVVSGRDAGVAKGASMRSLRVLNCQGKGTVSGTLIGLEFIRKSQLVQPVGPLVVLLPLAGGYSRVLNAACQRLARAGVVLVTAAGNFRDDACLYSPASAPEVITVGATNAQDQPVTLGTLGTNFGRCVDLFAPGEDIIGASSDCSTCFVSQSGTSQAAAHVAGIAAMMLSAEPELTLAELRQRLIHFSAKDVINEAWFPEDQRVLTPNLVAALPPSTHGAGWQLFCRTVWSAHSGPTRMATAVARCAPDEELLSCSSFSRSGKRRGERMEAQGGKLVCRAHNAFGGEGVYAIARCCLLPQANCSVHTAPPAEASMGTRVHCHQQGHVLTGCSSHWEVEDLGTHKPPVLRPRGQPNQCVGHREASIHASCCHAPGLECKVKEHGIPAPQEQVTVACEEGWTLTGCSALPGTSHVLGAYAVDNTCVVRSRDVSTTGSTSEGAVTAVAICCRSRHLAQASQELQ
human PCSK9 / human LDLR EGFa domain interaction, sequence (Q8NBP7 31-152 partner limits assumed): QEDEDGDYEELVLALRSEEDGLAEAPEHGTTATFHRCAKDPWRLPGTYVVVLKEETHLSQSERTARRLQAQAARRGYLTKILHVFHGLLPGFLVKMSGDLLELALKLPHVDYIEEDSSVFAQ
How it was run: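 Biotinylated human PCSK9 (20 nM) and His-tagged human LDLR EGFa domain (20 nM) incubated with Ulight-streptavidin and Eu-anti-His (5 nM each), 2 h at room temperature, in HEPES pH buffer with 5 mM CaCl2. TR-FRET read-out; IC50 from 4-parameter fit of dose-response.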

[2] = biological target: T1, PCSK9 (Homo sapiens, UniProt Q8NBP7); experiment: PCSK9 Alexa FRET Standard assay (displacement of AlexaFluor647-tagged cyclic peptide Reagent A); conditions: 0.5 nM PCSK9, 20 nM AF cyclic peptide Reagent A
T1 construct: biotin (biotinylated)
T1 sequence (Q8NBP7 153-692): as the sequence (Q8NBP7 153-692) above

[3] = biological target: T1, PCSK9; experiment: PCSK9 Alexa FRET Plus assay (displacement of AlexaFluor647-tagged cyclic peptide Reagent B); conditions: 0.5 nM PCSK9, 960 nM AF cyclic peptide Reagent B
Description: A solution containing 1 nM biotinylated PCSK9+2.5 nM Lance Streptavidin Europium (Strep-Eu) was made in 50 mM HEPES pH 7.4, 0.15 M NaCl, 5 mM CaCl2, 0.01% BSA, and 0.01% Surfactant P20. A separate solution containing 1920 nM of the AlexaFluor tagged cyclic peptide was made in the same buffer system. An Echo was used to transfer 0.075 ul of compound plus 0.675 ul of DMSO to each well of an assay plate followed by the addition of 15 ul of PCSK9+Stept-Eu and 15 ul of AF peptide. The final assay volume was 30.750 ul containing 0.5 nM PCSK9, 1.25 nM Strep-Eu, and 960 nM AF cyclic peptide. The reaction was incubated at room temperature for at least two hours prior to fluorescence measurements using an Envision Multilabel Reader. IC50 values were determined by fitting data to a sigmoidal dose-response curve using nonlinear regression. Ki was then calculated from the IC50 and the KD of AF cyclic peptide. Counts (B-counts) of the europium-labeled PCSK9 were followed to observe if compounds were adversely affecting PCSK9. A fall off of the B-counts likely indicated a false positive of inhibition. Data from this procedure was reported as “P=‘numerical value’ (nanomolar)”

Row | Compound | IC50 [1] [nM] | IC50 [2] [nM] | IC50 [3] [nM]
1 | CC(C)[C@]1(C)NC(=O)[C@H](Cc2ccc(O)cc2)NC(=O)[C@H](C)NC(=O)C(C)(C)NC(=O)[C@H](Cc2c[nH]c3ncccc23)NC(=O)[C@H]([C@@H](C)O)NC(=O)[C@@H]2CCCN2C(=O)[C@H](Cc2ccc(O)cc2)NC(=O)[C@H](C(C)(C)C)NC(=O)CCSCc2cccc(c2)CSC[C@@H](C(N)=O)NC(=O)[C@H]([C@@H](C)OP(=O)(O)O)NC1=O [Compound 015] ([Mpa][Tle]YPT[Trp(7-aza)][Aib]AY[αMeV][pT]C-NH2; linker 1-12 via mXylylene) | 1 to 100 | 1 to 100 | 1 to 100
2 | CC(C)[C@]1(C)NC(=O)[C@H](Cc2ccc(O)cc2)NC(=O)[C@H](C)NC(=O)C(C)(C)NC(=O)[C@H](Cc2c[nH]c3ncccc23)NC(=O)[C@H]([C@@H](C)O)NC(=O)[C@@H]2CCCN2C(=O)[C@H](Cc2ccc(O)cc2)NC(=O)[C@H](C(C)(C)C)NC(=O)CCSCc2cccc(c2)CSC[C@@H](C(N)=O)NC(=O)[C@H](COP(=O)(O)O)NC1=O [Compound 016] ([Mpa][Tle]YPT[Trp(7-aza)][Aib]AY[αMeV][pS]C-NH2; linker 1-12 via mXylylene) | 1 to 100 | 1 to 100 | 1 to 100
3 | CC(=O)N[C@H]1CSCc2cccc(c2)CSC[C@H](C(N)=O)NC(=O)[C@H]([C@H](C)O)NC(=O)[C@](C)(C(C)C)NC(=O)[C@H](Cc2ccc(O)cc2)NC(=O)[C@H](C)NC(=O)C(C)(C)NC(=O)[C@H](Cc2c[nH]c3ncccc23)NC(=O)[C@H]([C@@H](C)O)NC(=O)[C@@H]2CCCN2C(=O)[C@H](Cc2ccccc2)NC(=O)[C@H](C(C)(C)C)NC1=O [Compound 040] (Ac-C[Tle]FPT[Trp(7-aza)][Aib]AY[αMeV][aThr][dC]-NH2; linker 1-12 via mXylylene) |  | 1 to 100 | 1 to 100
4 | CC(=O)N[C@H]1CSCc2cccc(c2)CSC[C@H](C(N)=O)NC(=O)[C@H]([C@H](C)O)NC(=O)[C@](C)(C(C)C)NC(=O)[C@H](Cc2ccc(O)cc2)NC(=O)[C@H](C)NC(=O)C(C)(C)NC(=O)[C@H](Cc2c[nH]c3ncccc23)NC(=O)[C@H]([C@@H](C)O)NC(=O)[C@@H]2CCCN2C(=O)[C@H](Cc2cccc(C(F)(F)F)c2)NC(=O)[C@H](C(C)(C)C)NC1=O [Compound 041] (Ac-C[Tle][Phe(3-CF3)]PT[Trp(7-aza)][Aib]AY[αMeV][aThr][dC]-NH2; linker 1-12 via mXylylene) |  | 21000 to 50000 | 500 to 5000
5 | CC1O[C@@H](C)[C@@H]2NC(=O)[C@@]1(C)NC(=O)[C@H](Cc1ccc(OP(=O)(O)O)cc1)NC(=O)[C@H](C)NC(=O)C(C)(C)NC(=O)[C@H](Cc1c[nH]c3ncccc13)NC(=O)[C@H]([C@@H](C)O)NC(=O)[C@@H]1CCCN1C(=O)[C@H](Cc1ccc(O)cc1)NC(=O)[C@H](C(C)(C)C)NC(=O)CCSCc1cccc(c1)CSC[C@@H](C(N)=O)NC2=O (stereo partly shown) [Compound 014] | 1 to 100 | 1 to 100 | 1 to 100
